Source: US12419305B2, “Antimicrobial compositions” (Firmenich SA, priority 2018, dated 2025)

What was measured:
S. haemolyticus 114126 = experiment: BCT test (bacterial contact time), 120 s, log reduction / effect fraction; CI by Compusyn; assay type: cell-based; conditions: Staphylococcus haemolyticus, 114126, 2 min, contact 120 s, 25% EtOH; for log reduction at 0.25 % strength: dose 0.25% w/v; for log reduction at 0.5 % strength: dose 0.5% w/v
Experimental: S. haemolyticus: Suspensions of the S. haemolyticus 114126 strain, isolated from skin, were prepared as follows: Stock cultures (stored at −80° C.) were thawed and sub-cultured onto TSA-TW80 agar plate media, and incubated at 37° C. for 24 h to obtain single colonies. Single colonies of the primary cultures were streaked onto fresh TSA-TW80 plates and incubated at 37° C. for 24 h to prepare secondary cultures. Single colonies of secondary cultures were picked and used to inoculate 50 mL of BHI-TW80 broth. The inoculated broth was incubated at 37° C. at 180 rpm for 18 h. Aliquots (0.5 ml) of the 18 h culture were inoculated into 50 ml of fresh BHI-TW80 broth, and incubated at 37° C. at 180 rpm for approximately 3 hours. When the OD 600 nm value of the broth reached 1-2, cells were harvested by centrifugation at 5000 rpm for 10 min, and then resuspended in fresh BHI-TW80 broth at a concentration of 1-5×10^8 CFU/mL. This suspension was used as the bacterial suspension for the BCT test.
(§1) BCT Test: Test compositions at a range of concentrations (either combinations of more than one perfume ingredient, and comparative compositions comprising the single perfume ingredients) were prepared in ethanol. Five replicates of each test composition were added into 96-well microtiter plates (120 μl per well), with row B containing control compositions containing the ethanol solution alone. 120 μl of bacterial cell suspensions at a concentration of approximately 1×10^8 bacteria per mL (as prepared above) were added to each well of the microtiter plate. The bacterial suspensions were incubated with the test solutions for 45, 60, or 120 seconds. Following the incubation of the bacterial suspensions with the test solutions, serial dilutions of the bacterial suspensions were generated (three serial 1:10 dilutions, followed by 17 serial 1:2 dilutions), in multiwell microtiter plates.
(§2) Each plate was sealed and incubated at 37° C. under agitation (180 rpm). After incubation, the turbidity of the wells (OD600 nm) was determined using a Tecan microplate reader. Turbid wells were regarded as positive growth, due to the presence of viable cells. The total number of viable cells (log CFU) for each sample was calculated. And the log reduction for each test composition at the final concentration (dose) was calculated against the control sample of the ethanol solution.
(§3) Determination of Synergy via the Combination Index (CI): The CI was calculated using Compusyn software (ComboSyn, Inc., as created by Dr. Dorothy Chou in 2005), according to the manufacturer's instructions. The concentration of each test composition (combinations of more than one perfume ingredient, and comparative compositions comprising the single perfume ingredients used to generate the combination) and their corresponding effect fraction was entered, and the corresponding CI calculated.
(§4) When the calculated CI values were less than 0.9, the combination of perfume ingredients was regarded as having synergistic effect. When the calculated CI was between 1.0 a 0.9, the combination of perfume ingredients was regarded as having an additive effect. When the calculated CI was greater than 1.0, the combination of perfume ingredients was regarded as having an antagonistic effect.

S. aureus ATCC 6538 = experiment: BCT test (bacterial contact time), 60 s, log reduction / effect fraction; CI by Compusyn; assay type: cell-based, Staphylococcus aureus; conditions: Staphylococcus aureus, ATCC6538, 1 min, 60 s, in 25% EtOH; for log reduction at 0.3 % strength: dose 0.300 % w/v; for log reduction at 0.35 % strength: dose 0.350 % w/v; for log reduction at 0.4 % strength: dose 0.400 % w/v; for log reduction at 0.45 % strength: dose 0.45 % w/v
Experimental: (§5) E. coli, S. aureus, P. aeruginosa, and S. enterica: Separate suspensions of the E. coli ATCC 10536 strain, S. aureus ATCC 6538 strain, Pseudomonas aeruginosa ATCC 15442 strain, and the Salmonella enterica ATCC 10708 strain were prepared as follows: Stock cultures (stored at −80° C.) were thawed and sub-cultured onto Tryptic Soy Agar (TSA) agar plate media, and incubated at 37° C. for 24 h to obtain single colonies. Single colonies of the primary cultures were streaked onto TSA plates and incubated at 37° for 24 h to generate secondary cultures. Single colonies of secondary cultures picked and used to inoculate into 50 mL of TSB broth. The inoculated TSB broth was incubated at 37° C. at 180 rpm for 18 h. Aliquots (0.5 ml) of the 18 h culture were inoculated into 50 ml of fresh TSB broth, and incubated at 37° C. at 180 rpm for 2-3 hours. When the OD600 nm value of the broth reached 1-2, cells were harvested by centrifugation at 5000 rpm for 10 min, and then resuspended in fresh TSB broth at a concentration of 1-5×10^8 CFU/mL. These suspensions were used as the bacterial suspensions for the BCT test.
as §1, §2, §3, §4

[1] = system: Pseudomonas aeruginosa ATCC 15442; experiment: as above; assay type: cell-based; conditions: Pseudomonas aeruginosa, ATCC15442, 1 min, BCT 60 s, in 25% EtOH; for log reduction at 0.25 % strength: Dose 0.25 % w/v; for log reduction at 0.4 % strength: Dose 0.4 % w/v; for log reduction at 0.5 % strength: Dose 0.5 % w/v; for log reduction at 0.3 % strength: Dose 0.3 % w/v
Experimental: as §5, §1, §2, §3, §4

[2] = system: Salmonella enterica ATCC 10708; experiment: as above; assay type: cell-based; conditions: Salmonella enterica, ATCC10708, 1 min, BCT 60 s, in 25% EtOH; for log reduction at 0.15 % strength: Dose 0.15 % w/v; for log reduction at 0.2 % strength: Dose 0.2 % w/v; for log reduction at 0.25 % strength: Dose 0.25 % w/v; for log reduction at 0.3 % strength: Dose 0.3 % w/v
Experimental: as §5, §1, §2, §3, §4

E. coli ATCC 10536 = experiment: BCT test (bacterial contact time), 45 s, log reduction / effect fraction; CI by Compusyn; assay type: cell-based, Escherichia coli; conditions: Escherichia coli, ATCC10536, 45 s, 45 s, in 20% EtOH
Experimental: as §5, §1, §2, §3, §4

CC(=O)OCc1ccccc1 [Benzyl acetate, benzyl acetate]
log reduction at 0.25 % strength (S. haemolyticus 114126; read-out: Log reduction): 0.2
log reduction at 0.3 % strength (S. haemolyticus 114126; dose 0.3% w/v, read-out: Log reduction): 0.5
log reduction at 0.35 % strength (S. haemolyticus 114126; dose 0.35% w/v): 1.3
log reduction at 0.4 % strength (S. haemolyticus 114126; dose 0.4% w/v, read-out: Log reduction): 2.5
log reduction at 0.5 % strength (S. haemolyticus 114126): 6.2
log reduction at 0.25 % strength (S. aureus ATCC 6538; dose 0.250 % w/v, read-out: Log reduction): 0.8
log reduction at 0.3 % strength (S. aureus ATCC 6538; read-out: Log reduction): 1.9
log reduction at 0.35 % strength (S. aureus ATCC 6538; read-out: Log reduction): 5.1
log reduction at 0.4 % strength (S. aureus ATCC 6538; read-out: Log reduction): 6.7
log reduction at 0.45 % strength (S. aureus ATCC 6538): 7.1
log reduction at 0.2 % strength ([1]; Dose 0.2 % w/v, read-out: Log reduction): 1.2
log reduction at 0.25 % strength ([1]; read-out: Log reduction): 3.9
log reduction at 0.4 % strength ([1]; read-out: Log reduction): 7.4
log reduction at 0.45 % strength ([1]; Dose 0.45 % w/v, read-out: Log reduction): 7.4
log reduction at 0.5 % strength [1]: 7.4
log reduction at 0.15 % strength [2]: 0
log reduction at 0.2 % strength [2]: 1.9
log reduction at 0.225 % strength ([2]; Dose 0.225 % w/v): 5
log reduction at 0.25 % strength [2]: 6.5
log reduction at 0.3 % strength [2]: 7.7

Cc1ccc2c(c1)OCC(=O)CO2 [Calone, 7-methyl-2H-1,5-benzodioxepin-3(4H)-one]
log reduction at 0.5 % strength (S. haemolyticus 114126): 0
log reduction at 0.7 % strength (S. haemolyticus 114126; dose 0.7% w/v): 0.5
log reduction at 0.8 % strength (S. haemolyticus 114126; dose 0.8% w/v): 2.9
log reduction at 0.9 % strength (S. haemolyticus 114126; dose 0.9% w/v): 4.7
log reduction at 1.2 % strength (S. haemolyticus 114126; dose 1.2% w/v): 6.9
log reduction at 0.6 % strength (S. aureus ATCC 6538; dose 0.600 % w/v, read-out: Log reduction): 1.6
log reduction at 0.7 % strength (S. aureus ATCC 6538; dose 0.700 % w/v, read-out: Log reduction): 2.5
log reduction at 0.8 % strength (S. aureus ATCC 6538; dose 0.800 % w/v): 6.9
log reduction at 0.9 % strength (S. aureus ATCC 6538; dose 0.900 % w/v): 6.9
log reduction at 1 % strength (S. aureus ATCC 6538; dose 1.000 % w/v, read-out: Log reduction): 6.9
log reduction at 0.25 % strength ([1]; read-out: Log reduction): 0.3
log reduction at 0.3 % strength ([1]; read-out: Log reduction): 1
log reduction at 0.35 % strength ([1]; Dose 0.35 % w/v): 2.7
log reduction at 0.4 % strength ([1]; read-out: Log reduction): 4.3
log reduction at 0.5 % strength [1]: 6.9
log reduction at 0.25 % strength [2]: 0.7
log reduction at 0.3 % strength [2]: 2.7
log reduction at 0.35 % strength ([2]; Dose 0.350 % w/v): 4.2
log reduction at 0.4 % strength ([2]; Dose 0.4 % w/v): 7.2
log reduction at 0.45 % strength ([2]; Dose 0.450 % w/v): 7.8

OC/C=C/c1ccccc1 [Cinnamic alcohol, (2E)-3-phenyl-2-propen-1-ol]
log reduction at 0.25 % strength (S. haemolyticus 114126; read-out: Log reduction): 0.2
log reduction at 0.5 % strength (S. haemolyticus 114126): 4.1
log reduction at 1 % strength (S. haemolyticus 114126; dose 1.0% w/v): 7.3
log reduction at 1.25 % strength (S. haemolyticus 114126; dose 1.25% w/v): 7.3
log reduction at 1.5 % strength (S. haemolyticus 114126; dose 1.5% w/v): 7.3
log reduction at 0.3 % strength (S. aureus ATCC 6538; read-out: Log reduction): 1.8
log reduction at 0.35 % strength (S. aureus ATCC 6538; read-out: Log reduction): 2.6
log reduction at 0.4 % strength (S. aureus ATCC 6538; read-out: Log reduction): 5.5
log reduction at 0.45 % strength (S. aureus ATCC 6538): 6.9
log reduction at 0.5 % strength (S. aureus ATCC 6538; dose 0.500 % w/v, read-out: Log reduction): 6.9
log reduction at 0.2 % strength (E. coli ATCC 10536; dose 0.200 % w/v): 0.1
log reduction at 0.25 % strength (E. coli ATCC 10536; dose 0.250 % w/v): 0.6
log reduction at 0.3 % strength (E. coli ATCC 10536; dose 0.300 % w/v): 1.4
log reduction at 0.35 % strength (E. coli ATCC 10536; dose 0.350 % w/v): 4.2
log reduction at 0.4 % strength (E. coli ATCC 10536; dose 0.400 % w/v): 7.3
log reduction at 0.25 % strength ([1]; read-out: Log reduction): 4.1
log reduction at 0.3 % strength ([1]; read-out: Log reduction): 6.7
log reduction at 0.4 % strength ([1]; read-out: Log reduction): 7.5
log reduction at 0.15 % strength [2]: 0.5
log reduction at 0.175 % strength ([2]; Dose 0.175 % w/v): 1
log reduction at 0.2 % strength [2]: 1.5
log reduction at 0.25 % strength [2]: 4.9
log reduction at 0.3 % strength [2]: 7.8
